# Assay results reported in US9815815B2, “Non-selective kinase inhibitors” (GILEAD SCIENCES, INC., priority 2013, dated 2017).
# Marks after values point to notes of the source that are not given here.
# What was measured:
# [1] = tested on: PDGFAA stimulated AKT phosphorylation; assay: In cell Western (ICW), PDGFAA stimulated AKT phosphorylation in human fetal lung fibroblasts; type: cell-based; conditions: comparison in words
# Protocol: In cell Western (ICW). […] HLFs were maintained in subculture at no more than 6 passages in DMEM with 5% FBS and 4 mM Glutamax at 37° C., 5% CO2. HLFs were plated and grown to 70-80% confluence in 96 well plates then serum-starved for 48 hours. […] After washing, the signal was quantified using an Odyssey Infrared Imaging System (LI-COR). Phosphoprotein signal (800 nm) was normalized to total protein signal (700 nm) acquired from each well and experimental duplicates on same plate were averaged and reported.
# [2] = Pharmacokinetic study, lung and plasma levels after inhalation or IV; type: in vivo, rat
# Protocol: Pharmacokinetic studies. PK10453 (Structure 2) was administered intravenously or by inhalation to animals, which were then euthanized at time 0, 10, 20, and 60 min (n=3 each time point). Blood samples were taken by cardiac puncture, and the lungs excised. The lungs were homogenized and PK10453 (Structure 2) extracted with a 1:3 mixture of acetonitrile:methanol. Similarly, plasma was extracted with a 1:3 mixture of acetonitrile:methanol. Drug was assayed by LC MS/MS (PharmOptima Inc., Portage Mich.). First order exponential curves were fit to the data with Excel. AUC was determined with the trapezoidal method of integration.
# For the pharmacokinetic study, the concentration of PK10453 (Structure 2) in lung when administered by inhalation was compared to the concentration achieved with IV administration. As described in Morén “Aerosols in medicine : principles, diagnosis, and therapy.” Amsterdam; New York: Elsevier. (1993) and Phalen et al., “Inhalation exposure methodology.” Environ Health Perspect 56:23-34 (1984)), it is possible to estimate the pharmacokinetic advantage of inhalation relative to intravenous administration, Rd, by comparing the AUC of a plot of the drug concentration as a function of time following respiratory and IV administration: Rd=[(AUClung/AUCplasma)respiratory]/[(AUClung/AUCplasma)IV]
# [3] = Systemic blood pressure study in ambulatory MCT treated rats; type: in vivo, rat; conditions: inhalation
# Protocol: Systemic blood pressure study. The effect of PK10453 (Structure 2) on systemic BP was studied in ambulatory MCT treated rats with DSI PAC40 transmitters implanted in the descending aorta. […] Blood pressure was recorded before each morning dose.
# [4] = Two-chamber plethysmography in the rat MCT+PN model; type: in vivo; design: SRaw: unit not given beside the values
# Protocol: Plethysmography. Plethysmography was performed with an EMKA dual chamber plethysmograph and IOX software. Parameters measured included breathing frequency, tidal volume, minute ventilation, peak inspiratory and expiratory flow, and airway resistance (SRaw). Animals were acclimatized to the plethysmograph for three days prior to first data acquisition. Measurements were made prior to the first dose of drug and at the end of the study.
# rat MCT+PN model = assay: RV pressure, PV loops, RV hypertrophy and morphometry in the rat MCT+PN model; type: in vivo; conditions: for ESV: PV loop, second part of Table 3
# Protocol: Measurement of PV loops. In a separate cohort of animals, the MCT+PN model was developed as described above, and PK10453 (Structure 2) was then administered for 4 or 8 min three times a day to the drug treated group. The vehicle control group underwent 4 min exposures three times a day. Pressure Volume (PV) loops were obtained with an admittance system (Scisense, Inc.) after 14 days of treatment, while rats were under general anesthesia with isoflurane and 100% FiO2. Also, or in the alternative, RV pressures were obtained in each group after 14 days of treatment. In a subset of each group, pressure Volume (PV) loops were obtained with an admittance system (high fidelity catheter FTE1918B, Scisense, Inc.) after 14 days of treatment. After induction of general anesthesia and intubation via tracheostomy, the rats were placed on a pressure controlled ventilator (TOPOVENT). General anesthesia consisted of isoflurane and 100% FiO2 with peak inspiratory pressure set at 18 cm, and PEEP 5 cm H2O. A left thoracotomy was performed with admittance catheter in the RV via the RV outflow tract.
# Histology and morphometric analysis. At the end of the study, the heart and lungs were removed from ventilated animals under general anesthesia. Heparinized saline was infused under pressure through the main pulmonary artery. The right upper lobe was immediately tied off and placed in liquid nitrogen for Western blot and NanoPro 100 ™ assay analysis. The heart was removed, and the RV free wall, interventricular septum and LV free wall dissected and weighed. Buffered formalin (10%) was infused under pressure both through the pulmonary artery and the trachea. Morphometric analysis was performed on H&E stained formalin fixed tissue sectioned at 8 μm. The media area and lumen area of pulmonary arterioles were measured with Image J software by a technician blinded to treatment group. Measurements were made on 20 pulmonary arterioles per section. The ratio of the lumen area to the total media area was determined This ratio normalizes the variation in total pulmonary arteriole area. […]
structure (smiles),measurement,setting,value
"COc1cc(-c2cncc(N[C@@H](C)c3cccc(NC(=O)c4cncc(C)c4)c3)n2)ccc1O [PK10453, (S)-N-(3-(1-((6-(4-hydroxy-3-methoxyphenyl)pyrazin-2yl)amino)ethyl)phenyl)-5-methylnicotinamide]","IC50 for PDGFAA stimulated phosphorylation of AKT, PK10453 vs imatinib",[1],not significantly different
same,Rd = [(AUClung/AUCplasma)respiratory]/[(AUClung/AUCplasma)IV],[2]; inhalation relative to IV,44.6
same,advantage of inhaled compared to IV administration,[2]; lung/plasma AUC ratio,45 fold
same,"effect on systemic BP, in words",[3],did not have an adverse effect
same,MV,"[4]; day 1, D4, mean",223.24 mL/min
same,PEF,"[4]; day 1, D4, mean",11.04
same,PIF,"[4]; day 1, D4, mean",9.82
same,SRaw,"[4]; day 1, D4, mean",39.73
same,TV,"[4]; day 1, D4, mean",1.00 mL
same,f,"[4]; day 1, D4, mean",224.68 breaths per minute
same,MV,"[4]; day 1, D8, mean",174.68 mL/min
same,PEF,"[4]; day 1, D8, mean",9.43
same,PIF,"[4]; day 1, D8, mean",8.54
same,SRaw,"[4]; day 1, D8, mean",36.01
same,TV,"[4]; day 1, D8, mean",0.74 mL
same,f,"[4]; day 1, D8, mean",259.13 breaths per minute
same,MV,"[4]; day 15, D4, mean",176.12§
same,PEF,"[4]; day 15, D4, mean",9.33*
same,PIF,"[4]; day 15, D4, mean",7.82*
same,SRaw,"[4]; day 15, D4, mean",33.09
same,TV,"[4]; day 15, D4, mean",0.85
same,f,"[4]; day 15, D4, mean",217.12 breaths per minute
same,MV,"[4]; day 15, D8, mean",128.49
same,PEF,"[4]; day 15, D8, mean",6.64
same,PIF,"[4]; day 15, D8, mean",6.06
same,SRaw,"[4]; day 15, D8, mean",49.26
same,TV,"[4]; day 15, D8, mean",0.63
same,f,"[4]; day 15, D8, mean",232.11 breaths per minute
same,"effect on lung function, in words","[4]; inhaled, 2-wk course",did not adversely affect lung function
same,RV systolic pressure,"rat MCT+PN model; D8: 8 min 3x/day, 14 days",43.0±3.0 mm Hg
same,ESV,"rat MCT+PN model; D4, mean",408.95 µL
same,ESV,"rat MCT+PN model; D8, mean",488.68 µL
